# Data taken from patent US20190015484A1, “NICOTINE-DEGRADING ENZYMES FOR TREATING NICOTINE ADDICTION AND NICOTINE POISONING” (priority 2015, published 2019).
# Like-named read-outs stand apart in the source and are kept apart here.
# Assays:
# [1] = humans, cited from earlier work
# [2] = biological target: neuronal nicotinic acetylcholine receptors (nAChR); settings: read-out: Ki for nAChr; cited from earlier work
# [3] = biological target: neuronal nicotinic acetylcholine receptors (nAChR); settings: cited from earlier work
# [4] = test system: Swiss Webster mice; assay: Toxicity of reaction product to mice; assay type: in vivo, mouse
# Procedure: Short-term experiments were performed by administrating 35, 70 140 ng of […] to male Swiss Webster mice (about 20 g, n=4 for each group) daily. Their viability and behavior was recorded.
# Long-term experiments were performed by administrating 200 ng to the same species of mice (n=7) every other day for 5 weeks. At the end of the 5th week, the mice were euthanized and autopsied.
# The clinical utility of an enzyme also relates to the toxicity and addictive properties of the reaction products. […] However, it has been reported as a likely precursor to 4-(methylnitrosamino)-1-(3-pyridyl)-1-butanone (NNK), a potential carcinogen.^20 To investigate any harmful effects of 4, toxicology studies were performed in which mice were administered pseudooxynicotine (4).
# Mice received 35, 70 or 140 ng of compound 4 daily, which is representative of the typical range of nicotine amounts (4-72 ng/mL) found in smokers,^19 if fully converted to compound 4. […] In addition, the long-term exposure (5-weeks) of 4 was evaluated where the mice were dosing every other day with 200 ng compound 4 per dose.
compound,measurement,setting,value
"CN1CCC[C@H]1c1cccnc1 [nicotine, (S)-(−)-nicotine]",terminal half-life,[1]; regular smoking,≥ 20 h
same,elimination half-life,[1]; tobacco use,2 to 3 h
same,Ki,[2],1 to 12 nM
same,EC50,"[3]; read-out: EC50 for activation of nAChr, activation",60 nM
same,EC50,"[3]; read-out: EC50 for desensitization of nAChr, desensitization",2.8 nM
"CNCCCC(=O)c1cccnc1 [compound 4, 4-(methylamino)-1-(pyridine-3-yl)butan-1-one]","health and autopsy, long-term exposure","[4]; mice, 200 ng every other day, 5 weeks",remained healthy and autopsies did not reveal any sign of neoplasia or organ damage
same,"health and behavior, short-term","[4]; mice, 35, 70 or 140 ng daily, five days",none of the mice exhibited any evidence of health or behavioral problems
